Type in all cases: cell-based, HIV-1
The subject of assay [1] is HIV strain IIIB (wild type). As to the kind of experiment: Cellular anti-HIV assay in MT4 LTR-EGFP cells, strain IIIB (wild type); selectivity index versus cytotoxicity in mock-infected MT4 CMV-EGFP cells. As to conditions: for EC50: Human immunodeficiency virus 1, 72 h, wild type HIV strain IIIB, MT4 LTR-EGFP cells, fluorescence, three days after infection, read-out: IIIB pEC50 (converted); for IIIB pSi: selectivity index = ratio of CC50 (mock-infected MT4 CMV-EGFP cells) to EC50 (IIIB), given as p value. As to the method:
(§1) The antiviral activity of the compound of the present invention has been evaluated in the presence of wild type HIV and HIV mutants bearing mutations at the reverse transcriptase gene. The activity of the compounds is evaluated using a cellular assay which was performed according to the following procedure.
(§2) The human T-cell line MT4 is engineered with Green Fluorescent Protein (GFP) and an HIV-specific promoter, HIV-1 long terminal repeat (LTR). This cell line is designated MT4 LTR-EGFP, and can be used for the in vitro evaluation of anti-HIV activity of investigational compounds. In HIV-1 infected cells, the Tat protein is produced which upregulates the LTR promotor and finally leads to stimulation of the GFP reporter production, allowing to measure ongoing HIV-infection fluorometrically. Analogously, MT4 cells are engineered with GFP and the constitutional cytomegalovirus (CMV) promotor. This cell line is designated MT4 CMV-EGFP, and can be used for the in vitro evaluation of cytotoxicity of investigational compounds. In this cell line, GFP levels are comparably to those of infected MT4 LTR-EGFP cells. Cytotoxic investigational compounds reduce GFP levels of mock-infected MT4 CMV-EGFP cells.
(§3) Effective concentration values such as 50% effective concentration (EC50) can be determined and are usually expressed in μM. An EC50 value is defined as the concentration of test compound that reduces the fluorescence of HIV-infected cells by 50%. The 50% cytotoxic concentration (CC50 in μM) is defined as the concentration of test compound that reduces fluorescence of the mock-infected cells by 50%. The ratio of CC50 to EC50 is defined as the selectivity index (SI) and is an indication of the selectivity of the anti-HIV activity of the inhibitor. The ultimate monitoring of HIV-1 infection and cytotoxicity is done using a scanning microscope. Image analysis allows very sensitive detection of viral infection. Measurements are done before cell necrosis, which usually takes place about five days after infection, in particular measurements are performed three days after infection.
(§4) The columns IIIB, L100I, etc. in the table list the pEC50 values against various strains IIIB, L100I, etc.
Strain IIIB is wild type HIV strain

Assay [2] deals with HIV strain L100I. The assay is described as follows: Cellular anti-HIV assay in MT4 LTR-EGFP cells, mutant L100I. The settings on record: Human immunodeficiency virus 1, read-out: L100I pEC50 (converted). How it is done: (§5) Because of the increasing emergence of drug resistant HIV strains, the present compounds were tested for their potency against clinically isolated HIV strains harbouring several mutations. These mutations are associated with resistance to reverse transcriptase inhibitors and result in viruses that show various degrees of phenotypic cross-resistance to the currently commercially available drugs such as for instance AZT and delavirdine.
as §1, §2, §3, §4

For assay [3], the system named is HIV strain L100I + K103N. As to the kind of experiment: Cellular anti-HIV assay in MT4 LTR-EGFP cells, mutant L100I + K103N. As to conditions: Human immunodeficiency virus 1, 72 h, read-out: L100I + K103N pEC50 (converted). How it is done:
as §5, §1, §2, §3, §4

For assay [4], the system named is HIV strain K103N. As to the kind of experiment: Cellular anti-HIV assay in MT4 LTR-EGFP cells, mutant K103N. As to conditions: Human immunodeficiency virus 1, read-out: K103N pEC50 (converted). How it is done: as §5, §1, §2, §3, §4
For assay [5], the system named is HIV strain K103N + Y181C. As to the kind of experiment: Cellular anti-HIV assay in MT4 LTR-EGFP cells, mutant K103N + Y181C. The settings on record: Human immunodeficiency virus 1, 72 h, read-out: K103N + Y181C pEC50 (converted). As to the method: as §5, §1, §2, §3, §4
Assay [6] has as its system HIV strain Y181C. The assay is described as follows: Cellular anti-HIV assay in MT4 LTR-EGFP cells, mutant Y181C. As to conditions: Human immunodeficiency virus 1, read-out: Y181C pEC50 (converted). How it is done: as §5, §1, §2, §3, §4
Assay [7] relates to HIV strain Y188L. The assay is described as follows: Cellular anti-HIV assay in MT4 LTR-EGFP cells, mutant Y188L. As to conditions: Human immunodeficiency virus 1, read-out: Y188L pEC50 (converted). As to the method:
as §5, §1, §2, §3, §4

Assay [8] relates to HIV strain MDR. The assay is described as follows: Cellular anti-HIV assay in MT4 LTR-EGFP cells, MDR strain. The settings on record: Human immunodeficiency virus 1, read-out: MDR pEC50 (converted). As to the method: as §5, §1, §2, §3, §4
MDR refers to a strain that contains mutations L100I, K103N, Y181C, E138G, V1791, L2214F, V278V/I and A327A/V in HIV reverse transcriptase.

Where only a bound is given, the exact number is not on record here.

As for `Cc1cc(/C=C/C#N)cc(C)c1Nc1nc(Nc2ccc(C#N)cc2)ncc1C(=O)NCc1cccc(Cl)c1` [Compound 25], the EC50 in assay [1] is 12.6 nM; in assay [2], 25.1 nM; in assay [3], 39.8 nM; in assay [4], 15.8 nM; in assay [5] it was 31.6 nM; in assay [6], 79.4 nM. In addition, the EC50 in assay [7] is 50.1 nM; in assay [8] it was 10000 nM. Also, the “IIIB pSi” value in assay [1] worked out at 3.00.
In the case of `Cc1cc(/C=C/C#N)cc(C)c1Nc1nc(Nc2ccc(C#N)cc2)ncc1C(=O)NCc1ccc(F)cc1` [Compound 26], the EC50 in assay [1] was 12.6 nM; in assay [2], 25.1 nM; in assay [3], 316 nM; in assay [4], 12.6 nM; in assay [5], 39.8 nM; in assay [6], 50.1 nM. Besides, the figures for the EC50 in assay [7] and in assay [8] were 79.4 nM and 5010 nM, respectively. Moreover, the “IIIB pSi” value in assay [1] stood at 3.00.
Consider `Cc1cc(/C=C/C#N)cc(C)c1Nc1nc(Nc2ccc(C#N)cc2)ncc1C(=O)NCc1cccc(Br)c1` [Compound 29], for which the EC50 is 15.8 nM in assay [1]; 79.4 nM in assay [2]; 126 nM in assay [3]; 20 nM in assay [4]; 100 nM in assay [5]; 79.4 nM in assay [6]. For the same compound, the EC50 in assay [7] is 158 nM; in assay [8] it was 10000 nM. Also, the “IIIB pSi” value in assay [1] turned out to be 3.00.
With `Cc1cc(/C=C/C#N)cc(C)c1Nc1nc(Nc2ccc(C#N)cc2)ncc1C(=O)NCc1ccc(N(C)C)cc1` [Compound 30], the EC50 in assay [1] was 12.6 nM; in assay [2] it was 100 nM; in assay [3], 251 nM; in assay [4] it was 15.8 nM; in assay [5] it was 100 nM; in assay [6], 100 nM. Moreover, the EC50 in assay [7] is 316 nM; in assay [8] it was 5010 nM. For the same compound, the “IIIB pSi” value in assay [1] is more than 3.30.
Turning to `CC(=O)NCCNC(=O)c1cnc(Nc2ccc(C#N)cc2)nc1Nc1c(C)cc(/C=C/C#N)cc1C` [Compound 33], the EC50 in assay [1] was 15.8 nM; in assay [2], 15.8 nM; in assay [3], 15.8 nM; in assay [4], 15.8 nM; in assay [5], 12.6 nM; in assay [6] it was 50.1 nM. Also, the EC50 in assay [7] is 63.1 nM; in assay [8] it was 398 nM. Moreover, in assay [1], the “IIIB pSi” value is more than 3.20.
As to `Cc1cc(/C=C/C#N)cc(C)c1Nc1nc(Nc2ccc(C#N)cc2)ncc1C(=O)NCc1ccc(Br)cc1` [Compound 36], the EC50 in assay [1] was 25.1 nM; in assay [2] it was 126 nM; in assay [3], 794 nM; in assay [4], 25.1 nM; in assay [5], 126 nM; in assay [6], 126 nM. For the same compound, the EC50 is 398 nM in assay [7] and 10000 nM in assay [8]. In addition, the “IIIB pSi” value in assay [1] was more than 3.00.
For `Cc1cc(/C=C/C#N)cc(C)c1Nc1nc(Nc2ccc(C#N)cc2)ncc1C(=O)NC1CC1` [Compound 37], the EC50 in assay [1] was 2.51 nM; in assay [2], 5.01 nM; in assay [3], 20 nM; in assay [4], 1.58 nM; in assay [5] it was 7.94 nM; in assay [6] it was 12.6 nM. In addition, the EC50 in assay [7] is 12.6 nM; in assay [8], 1000 nM. Moreover, the “IIIB pSi” value in assay [1] is recorded as 3.60.
Regarding `Cc1cc(/C=C/C#N)cc(C)c1Nc1nc(Nc2ccc(C#N)cc2)ncc1C(=O)NCCCN1CCCC1` [Compound 38], the EC50 was 0.794 nM in assay [1]; 25.1 nM in assay [2]; 63.1 nM in assay [3]; 1 nM in assay [4]; 15.8 nM in assay [5]; 20 nM in assay [6]. Also, the EC50 in assay [7] is 25.1 nM; in assay [8], 2000 nM. Further, the “IIIB pSi” value in assay [1] is listed as 3.70.

The record behind these values is patent US8933089B2, “HIV inhibiting 5-amido substituted pyrimidines” (Janssen R & D Ireland, priority 2006, dated 2015).
